Reference: patent US6696474B2, “Antidiabetic agents” (Warner Lambert Co. LLC., priority 2002, dated 2004)
Like-named read-outs stand apart in the source and are kept apart here.

Columns and labels:
PPAR-γ = target: T1, PPAR-γ (Mus musculus, UniProt P37238); assay: 3T3-L1 transient reporter assay (AD3T3-L1 reporter); assay type: cell-based, murine; details: for EC50: 3T3-L1 cells, aP2 promoter luciferase reporter, 48 hours
T1 construct: endogenous in cells; host or cells: 3T3-L1 preadipocytes, differentiated for about 3 days with methyl isobutylxanthine, dexamethasone and insulin
T1 sequence (P37238 1-505): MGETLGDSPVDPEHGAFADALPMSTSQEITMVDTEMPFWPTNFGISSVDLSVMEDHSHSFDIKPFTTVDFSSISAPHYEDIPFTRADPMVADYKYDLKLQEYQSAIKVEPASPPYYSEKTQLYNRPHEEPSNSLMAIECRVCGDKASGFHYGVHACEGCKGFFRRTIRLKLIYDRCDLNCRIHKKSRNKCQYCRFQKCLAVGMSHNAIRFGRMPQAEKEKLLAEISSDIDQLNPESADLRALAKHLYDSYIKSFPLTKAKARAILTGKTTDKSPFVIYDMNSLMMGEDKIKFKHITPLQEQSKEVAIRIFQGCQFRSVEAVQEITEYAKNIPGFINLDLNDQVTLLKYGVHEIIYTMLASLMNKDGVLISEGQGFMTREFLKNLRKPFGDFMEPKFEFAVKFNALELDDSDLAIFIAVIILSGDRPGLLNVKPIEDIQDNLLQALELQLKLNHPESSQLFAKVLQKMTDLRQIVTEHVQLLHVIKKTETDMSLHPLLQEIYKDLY
Experimental: This assay is used to determine the potential of putative PPAR-γ ligands to activate the promoter/enhancer of the murine aP2 gene. 3T3-L1 preadipocytes are cultured on collagen coated plates in DMEM containing 10% Calf serum for 48 hours post-confluence. The cells are then cultured for approximately 3 days in DMEM containing 10% Fetal Bovine Serum (FBS), 0.5-mM methyl isobutylxanthine, 0.25 μM dexamethasone, and 1 μg/ml of insulin. Cells are detached from the plates with Trypsin-EDTA and resuspended in Phosphate Buffered Saline (PBS).
The reporter construct used in this assay is comprised of the —5.4 Kb 5′ flanking region of the murine aP2 gene inserted into the cloning site of the TKpGL3 luciferase vector. Transfection efficiency is controlled by co-transfection of the reference plasmid CMV-β-galactosidase. The reporter construct and the reference plasmid are transiently co-transfected into the cells by electroporation. The transfected cells are plated into collagen coated 96-well plates and cultured overnight. Cells are then incubated for 48 hours with the test compounds and then harvested. The lysates are measured for luciferase and β-galactosidase activities using the Dual-Light® luciferase kit from Tropix on a EG&G Berthold MicroLumat LB96P luminometer.

[1] = system: Ob/Ob diabetic mouse model; assay: Blood glucose measurement (Glucose Δ) in Ob/Ob diabetic mouse model; assay type: in vivo
Experimental: Glucose is obtained 4 hours post dose via tail vein stick (5 μl whole blood) in awake, 4 hour fasted animals. Blood is drawn by capillary action into a glucose cuvette and read in a HemoCue Glucose Analyzer (Ryan Diagnostics). Blood is diluted 1:2 with saline if glucose levels are greater than 400 mg/dl (meter high range) and results multiplied by two.

[2] = 3T3-L1, maximal response relative to rosiglitazone, read-out: AD3T3-L1 Reporter Max. % Rosi (maximal response)

| SMILES | Emax (PPAR-γ; [2]) | EC50 (PPAR-γ) | In VIVO Δ Glucose @ 20 mg/kg ([1]; 20 mg/kg, glucose 4 hours post dose) | In VIVO % Rosiglitazone ([1]; 20 mg/kg, glucose change relative to rosiglitazone) | Blood glucose in Ob/Ob diabetic mouse model ([1]; Ob/Ob diabetic mouse, in 3 days at 20 mg/Kg) | Emax (PPAR-γ; 3T3-L1, read-out: AD3T3-L1 Reporter Max. % Rosi (maximal response)) |
| --- | --- | --- | --- | --- | --- | --- |
| Cc1oc(-c2ccccc2)nc1CCCC#CCC(C(=O)O)c1cccs1 (stereo not drawn) [Example 1-13, 8-(5-Methyl-2-phenyl-oxazol-4-yl)-2-thiophen-2-yl-oct-4-ynoic Acid] | 97% | 303 nM | – | – | – | – |
| Cc1oc(-c2ccccc2)nc1CCCC#CCC(C(=O)O)n1nccn1 (stereo not drawn) [Example 1-15, 8-(5-Methyl-2-phenyl-oxazol-4-yl)-2-[1,2,3]triazol-2-yl-oct-4-ynoic Acid] | 103% | 15 nM | -258 mg/dL | 180% | Normalized blood glucose | – |
| Cc1oc(-c2ccccc2)nc1CCCC#CCC(C(=O)O)n1cccc1 (stereo not drawn) [Example 1-11] | – | 89 nM | – | – | – | 108% |
